Test results as given in US10828301B2, “2,4-pyrimidinediamine compounds and their uses” (Rigel Pharmaceuticals, Inc, priority 2002, dated 2020).

Columns and labels:
[1] = test system: cultured human mast cells (CHMC); assay: CHMC low cell density IgE activation: tryptase and LTC4 assays; type: cell-based; conditions: read-out: CHMC anti-IgE Tryptase
Summary of the method: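 Degranulation measured after 30 min anti-IgE challenge at 37° C of CHMC plated at 1000-1500 cells/well following 1 h preincubation. Readouts: LTC4 by ELISA on donor-specific diluted supernatants, and tryptase activity from a 30 min room-temperature substrate reaction.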

[2] = test system: cultured human mast cells (CHMC); assay: CHMC low cell density ionomycin activation: tryptase assay; type: cell-based; conditions: read-out: CHMC Ionomycin Tryptase
[3] = Homo sapiens, Mast cell, Low Density CHMC, anti-IgE activation, tryptase readout
[4] = Homo sapiens, Mast cell, Low Density CHMC, ionomycin activation, tryptase readout

| Compound | IC50 [1, 3] | IC50 [2, 4] | also measured |
| --- | --- | --- | --- |
| CC(C)NC(=O)Oc1cccc(Nc2ncc(F)c(Nc3cccc(OC(=O)NC(C)C)c3)n2)c1 [Compound R926412, N2,N4-Bis(3-isopropylaminocarbonyloxyphenyl)-5-fluoro-2,4-pyrimidinediamine] | – | – | IC50 ([1]; Homo sapiens, Mast cell): 0.62 µM; IC50 ([2]; Homo sapiens, Mast cell): > 10 µM |
| COC(=O)c1ccc(CNc2ncc(C#N)c(NCc3ccc(C(=O)OC)cc3)n2)cc1 [Compound R925819, N2,N4-Bis(methoxycarbonylbenzyl)-5-cyano-2,4-pyrimidinediamine] | – | – | IC50 ([1]; Low Density CHMC, anti-IgE activation, tryptase readout): > 10 µM; IC50 ([2]; Low Density CHMC, ionomycin activation, tryptase readout): > 10 µM |
| O=c1ccc2cc(Nc3ncc(F)c(Nc4ccc5oc(=O)ccc5c4)n3)ccc2o1 [Compound R926617, N2,N4-Bis(coumarin-6-yl)-5-fluoro-2,4-pyrimidinediamine] | 9.45 µM | > 10 µM | – |
| CC(=O)Nc1cccc(OCCCNc2ncc(F)c(Nc3ccc4c(c3)OCCO4)n2)c1 [Compound R926787, N2-[3-(3-Acetamidophenoxy)propyl]-N4-(3,4-ethylenedioxyphenyl)-5-fluoro-2,4-pyrimidinediamine] | 5.42 µM | > 10 µM | – |
| COc1ccc(OCCNNc2ncc(F)c(Nc3cccc(O)c3)n2)cc1 [Compound R950211, 5-Fluoro-N4-(3-hydroxyphenyl)-N2-(4-methoxyphenyloxyethyleneamino)-2,4-pyrimidinediamine] | 10 µM | > 10 µM | – |
| c1cc2c(cc1Nc1cc(Nc3ccc4c(c3)OCCO4)nc(Nc3ccc4c(c3)OCCO4)n1)OCCO2 [Compound R926516, N2,N4,N6-Tris(3,4-ethylenedioxyphenyl)-2,4,6-pyrimidinetriamine] | 1 µM | > 10 µM | – |
| Cc1c(O)ccc(Nc2ncc(F)c(Nc3ccc(O)c(C)c3C)n2)c1C [Compound R940217, N2,N4-Bis-(2,3-dimethyl-4-hydroxyphenyl)-5-fluoro-2,4-pyrimidinediamine] | > 10 µM | > 10 µM | – |
| COC(=O)C(CC(C)C)Nc1ncc(C#N)c(NC(CC(C)C)C(=O)OC)n1 (stereo not drawn) [Compound R925815, N2,N4-Bis(1-methoxycarbonyl-3-methylbutyl)-5-cyano-2,4-pyrimidinediamine] | > 10 µM | > 10 µM | – |

Continued, in another order:

| IC50 [1, 3] | IC50 [2, 4] | Compound | also measured |
| --- | --- | --- | --- |
| 0.627 µM | > 10 µM | CN(C)c1cccc(Nc2ncc(F)c(Nc3cccc(N(C)C)c3)n2)c1 [Compound R950182, N2,N4-Bis[3-(dimethylamino)phenyl]-5-fluoro-2,4-pyrimidinediamine] | – |
| 3 µM | > 10 µM | CCOC(=O)c1nc(Nc2ccc3c(c2)OCCO3)nc(Nc2ccc3c(c2)OCCO3)c1[N+](=O)[O-] [Compound R925852, N2,N4-Bis(3,4-ethylendioxyphenyl)-6-ethoxycarbonyl-5-nitro-2,4-pyrimidinediamine] | – |
| 1.21 µM | > 10 µM | COc1cc(Nc2ncc(F)c(Nc3cccc(O)c3)n2)c(OC)cc1Cl [Compound R926857, N2-(4-Chloro-2,5-dimethoxyphenyl)-5-fluoro-N4-(3-hydroxyphenyl)-2,4-pyrimidinediamine] | – |
| 0.511 µM | > 10 µM | CN1C=COc2cc(Nc3ncc(F)c(Nc4cccc(O)c4)n3)ccc21 [Compound R908704, 5-Fluoro-N4-(3-hydroxyphenyl)-N2-(N-methyl-1,4-benzoxazin-7-yl)-2,4-pyrimidinediamine] | – |
| 0.479 µM | > 10 µM | CC(C)Oc1ccc(Nc2nc(Nc3ccc(C(C)(C)CO)cc3)ncc2F)cc1 [Compound R935151, 5-Fluoro-N2-[4-(2-hydroxy-1,1-dimethylethyl)phenyl]-N4-(4-isopropoxyphenyl)-2,4-pyrimidinediamine] | – |
| > 10 µM | > 10 µM | CCOC(=O)C(Nc1ncc(C#N)c(NC(C(=O)OCC)C(C)C)n1)C(C)C (stereo not drawn) [Compound R925814, N2,N4-Bis(1-ethoxycarbonyl-2-methylpropyl)-5-cyano-2,4-pyrimidinediamine] | – |
| 0.874 µM | > 10 µM | Nc1cccc(Nc2nc(Nc3cccc(O)c3)ncc2F)c1 [Compound R950163, N4-(3-Aminophenyl)-5-fluoro-N2-(3-hydroxyphenyl)-2,4-pyrimidinediamine] | – |
